Here are results for 14 molecules from paper PMC4177008 (Organic & biomolecular chemistry, 2014).

Structures are written as SMILES. Entries after “also recorded” stand apart in the source; their conditions may differ. Some results are limits rather than exact numbers.

Data set [1] relates to influenza virus A/Udorn/72 strain (H3N2). As to the kind of experiment: MDCK cell-based plaque reduction assay, influenza A/Udorn/72. To be noted: for inhibition to influenza virus at 100 μM: at a concentration of 100 μM; for inhibition to influenza virus at 100 μM / anti-influenza inhibitory activity (result in words) / fold improvement of inhibitory activity over HTS hit P114F5: A/Udorn/72 (H3N2); for anti-influenza inhibitory activity (result in words): authors' description of the EC50 data; for EC50: influenza virus A/Udorn/72 strain (H3N2), 50% reduction of plaques in MDCK cells; for fold improvement of inhibitory activity over HTS hit P114F5: compared to P114F5. On the technique in general: In a plaque reduction assay, fewer plaques than in the control indicate reduced infectivity or spread.

Data set [2] has as its system Influenza A1/Jingfang 86-1(H1N1). Kind of data set: MDCK cell-based plaque reduction assay, influenza A1/Jingfang 86-1. To be noted: Influenza A virus.
For the next data set, the system named is Influenza B/Shenzhen/747. Kind of data set: MDCK cell-based plaque reduction assay, influenza B/Shenzhen/747. To be noted: Influenza B virus.
Data set [3] relates to Influenza A/PR/8/34 (H1N1). Kind of data set: MDCK cell-based plaque reduction assay, influenza A/PR/8/34. To be noted: Influenza A virus, H1N1|PR/8, MDCK.
Data set [4] concerns influenza A/udorn/72 (H3N2). In kind it is cell-based, influenza A virus.
Data set [5] deals with Influenza A3/Lufang 93-1(H3N2). Kind of data set: MDCK cell-based plaque reduction assay, influenza A3/Lufang 93-1. To be noted: Influenza A virus.
In data set [6] the test system is Madin-Darby canine kidney (MDCK) cells. As to the kind of experiment: MTT cytotoxicity assay in MDCK cells. In kind it is cell-based. Conditions: 24 h, mean ± SD of triplicates. A general note: Formazan colour is commonly taken as a measure of viable cells.
The subject of data set [7] is MDCK cells, HEK293 cells and HeLa cells. Kind of data set: MTT cytotoxicity, three cell lines. In kind it is cell-based.
In data set [8] the test system is human embryonic kidney cells (HEK293 cells). Kind of data set: MTT cytotoxicity assay in HEK293 cells. The data set is classed as cell-based. To be noted: HEK 293 cells, 24 h, mean ± SD of triplicates.
In data set [9] the test system is human epithelial carcinoma cell line (HeLa cells). As to the kind of experiment: MTT cytotoxicity assay in HeLa cells. In kind it is cell-based. To be noted: 24 h, mean ± SD of triplicates.

On to `CCOC(=O)N1CCC(Sc2ccncc2)CC1` [Compound 1c, Ethyl 4-(pyridin-4-ylthio)piperidine-1-carboxylate], for which, in data set [1], the “inhibition to influenza virus at 100 μM” value was “did not show any inhibition”.
In the case of `CCOC(=O)N1CCC(Sc2cccc3ccccc23)CC1` [Compound 1f, Ethyl 4-(naphthalen-1-ylthio)piperidine-1-carboxylate], the “anti-influenza inhibitory activity (result in words)” value (from here on “anti-influenza inhibitory activity”) in data set [1] is reported as “moderate inhibitory activities”.
One may read the EC50 as the concentration that produces a half-maximal response. A lower EC50 goes with a more potent agent. Turning to `CCOC(=O)N1CCC(Sc2ccnc3ccccc23)CC1` [Compound P114F5, ethyl 4-(quinolin-4-ylthio)piperidine-1-carboxylate], the EC50 in [2] was found to be 9.05 µM; in the data set on Influenza B/Shenzhen/747 it was 10.9 µM; in [3] it was 8.78 µM; in [5] it was 11.7 µM. Moreover, the “time-of-addition effect” value in [4] is listed as “most effective as an inhibitor of influenza virus; also recorded: no significant anti-influenza activities were observed”.
Consider `c1ccc2c(OC3CCOCC3)ccnc2c1` [Compound 11j, 4-((Tetrahydro-2H-pyran-4-yl)oxy)quinolone], for which, in data set [1], the EC50 is above 100 µM.
For `CCOC(=O)N1CCC(Nc2ccnc3ccccc23)CC1` [Compound 6b, Ethyl 4-(quinolin-4-ylamino)piperidine-1-carboxylate], in data set [1], the “anti-influenza inhibitory activity” value is reported as “moderate inhibitory activity”.
As for `CCOC(=O)N1CCC(Sc2cc(Cl)nc3ccccc23)CC1` [Compound 1b, Ethyl 4-((2-chloroquinolin-4-yl)thio)piperidine-1-carboxylate], the “anti-influenza inhibitory activity” value in [1] is on record as “moderate inhibitory activities”.
Regarding `CCOC(=O)N1CCC(Sc2ccc(OC)cc2)CC1` [Compound 1e, Ethyl 4-((4-methoxyphenyl)thio)piperidine-1-carboxylate], the “anti-influenza inhibitory activity” value in data set [1] is recorded as “moderate inhibitory activities”.
`CC(C)(C)OC(=O)N[C@@H](Cc1ccccc1)C(=O)N1CCC(Sc2ccnc3ccccc23)CC1` [Compound 12a, (S)-tert-Bbutyl (1-oxo-3-phenyl-1-(4-(quinolin-4-ylthio)piperidin-1-yl)propan-2-yl)carbamate] showed a 50% effective concentration (EC50) in data set [1] of 15.5 µM.
With `CC(C)(C)OC(=O)N1CCC(Oc2ccnc3ccccc23)CC1` [Compound 11e, tert-Butyl 4-(quinolin-4-yloxy)piperidine-1-carboxylate], in data set [1], the “fold improvement of inhibitory activity over HTS hit P114F5” value stood at 100 fold. For the same molecule, the figures for the “MDL50 (μM) mean ± SD” value in data set [6], in data set [8] and in data set [9] were 10061.92 ± 235.86 µM, 8101.97 ± 473.16 µM and 8850.21 ± 406.99 µM, respectively. In [7] (any of the cell lines, up to a concentration of millimolar (mM) range, MTT), the “cytotoxicity (result in words)” value is recorded as “did not exhibit cytotoxicity; also recorded: did not observe cytotoxicity”. The “selectivity index value (SI = MLD50/EC50)” value in data set [7] (based on cytotoxicity measured by MTT assays of three cell lines) is “over 160,000”. For the same molecule, the EC50 in data set [2] was 0.1 µM; with Influenza B/Shenzhen/747, 0.05 µM; in data set [3], 0.07 µM; in data set [5], 0.06 µM.
With `CCOC(=O)N1CCC(Sc2ccc(C)cc2)CC1` [Compound 1d, Ethyl 4-(p-tolylthio)piperidine-1-carboxylate], the “anti-influenza inhibitory activity” value in data set [1] is recorded as “moderate inhibitory activities”.
For `CCOC(=O)N1CCC(Sc2cc(-c3ccccc3)nc3ccccc23)CC1` [Compound 1a, Ethyl 4-((2-phenylquinolin-4-yl)thio)piperidine-1-carboxylate], the “inhibition to influenza virus at 100 μM” value in data set [1] was “did not show any inhibition”.
For `CC(C)(C)OC(=O)N[C@@H](CC(N)=O)C(=O)N1CCC(Sc2ccnc3ccccc23)CC1` [Compound 12b, (S)-tert-Butyl (4-amino-1,4-dioxo-1-(4-(quinolin-4-ylthio)piperi-din-1-yl)butan-2-yl)carbamate], the EC50 in data set [1] was above 100 µM.
Take `c1ccc2c(OC3CCNCC3)ccnc2c1` [Compound 11h, 4-(Piperidin-4-yloxy)quinolone]: in data set [1], the “anti-influenza inhibitory activity” value is reported as “significantly reduced the activity” and the EC50 was above 100 µM.
Regarding `CCOC(=O)N1CCC(Oc2ccnc3ccccc23)CC1` [Compound 6a, Ethyl 4-(quinolin-4-yloxy)piperidine-1-carboxylate], in data set [1], the “anti-influenza inhibitory activity” value is recorded as “good inhibitory activity” and the “fold improvement of inhibitory activity over HTS hit P114F5” value came to 6 fold.
